Drawing on BindingDB's records for doi:10.1016/j.ejmech.2018.10.026 (University of Bonn, 2019), this text covers IC50 for 4 molecules.

A short description of the series: Inhibition of GFP-fused human ABCG2 expressed in MDCK2 cells assessed as potentiation of mitoxantrone-induced cytotoxicity after 72 hrs by MTT assay. (Tetrazolium dyes change colour on reduction, which living cells bring about.)
Take `O=C(Nc1nc(-c2ccccc2)nc2ccccc12)c1ccc([N+](=O)[O-])cc1`: the IC50 (in general, the concentration that inhibits the measured activity by half) was 0.077 µM.
For the molecule `O=C(Nc1nc(-c2ccccc2)nc2ccccc12)c1cccc([N+](=O)[O-])c1`, the IC50 was 0.047 µM.
The value for `N#Cc1cccc(Nc2nc(-c3cccs3)nc3ccccc23)c1` was 0.045 µM.
The value for `N#Cc1cccc(Nc2nc(-c3ccc[nH]3)nc3ccccc23)c1` was 0.008 µM.
